# Results as given in US20170050894A1, “FERTILIZER MIXTURE CONTAINING NITRIFICATION INHIBITOR” (EUROCHEM AGRO GMBH, priority 2013, published 2017).
# Assay: Storage stability in an accelerated test (open glass beaker, 40 days at 30° C.)
# Assay type: physicochemical
# Details: for Analytical value (concentration of nitrification inhibitor on the mineral fertilizer): Value at start
# Description: The concentration of nitrification inhibitor on the mineral fertilizer was determined before, during and after storage at two different depths in the bed, and the loss of nitrification inhibitor was ascertained. In each case about 10 to 30 g of treated mineral fertilizer were stored. The concentration of DMPP at the start was 1.028 g/kg fertilizer; for 2-(N-3,4-dimethylpyrazole)succinic acid, the figure was 1.244 g/kg fertilizer.
# After 20 and 40 days, samples were taken from a surface region of the fertilizer bed (0 to 5 cm sampling depth and >5 cm sampling depth).
# The results are shown in table 1 below, where DMPSA denotes 2-(N-3,4-dimethylpyrazole)succinic acid.
Analytical value (concentration of nitrification inhibitor on the mineral fertilizer),"loss of nitrification inhibitor on storage, compared with DMPP (storage over 20 to 40 days on CAN)",SMILES
1.028 g/kg,,"Cc1c[nH]nc1C.O=P(O)(O)O [DMPP, 3,4-dimethylpyrazole phosphate, reference compound]"
1.244 g/kg,much lower,"Cc1cn(C(CC(=O)O)C(=O)O)nc1C (stereo not drawn) [DMPSA, 2-(N-3,4-dimethylpyrazole)succinic acid]"
